Measured values from ChEMBL document CHEMBL4396934, “Novel α,β-unsaturated hydroxamic acid derivatives overcome cisplatin resistance” (Bioorg Med Chem, 2019).
pIC50, pKi: −log10 of the molar value. One block for each molecule: values may come before it. Calls of active or inactive are those of the source. No cut-off for these calls is given here.

Key:
Histone deacetylase [1] = experiment: Inhibition of HDAC in human A2780 cells using Boc-Lys(epsilon-Ac)-AMC as substrate preincubated for 18 hrs followed by substrate addition and further incubation for 3 hrs by microplate reader based fluorescence assay; format: cell-based
CAL-27 [2] = experiment: Antiproliferative activity against human CAL27 cells after 72 hrs by microplate reader based MTT assay; format: functional, cell-based; conditions: CAL-27, 72 h
A2780 = experiment: Antiproliferative activity against human A2780 cells after 72 hrs by microplate reader based MTT assay; format: functional, cell-based; conditions: A2780, 72 h
Histone deacetylase [3] = experiment: Inhibition of HDAC in human CAL27 cells using Boc-Lys(epsilon-Ac)-AMC as substrate preincubated for 18 hrs followed by substrate addition and further incubation for 3 hrs by microplate reader based fluorescence assay; format: cell-based
Homo sapiens [4] = organism: Homo sapiens; experiment: (§1) Potentiation of cisplatin-induced apoptosis in human Cal27CisR cells assessed as caspase-3/7 activity at 1 uM preincubated for 48 hrs followed by cisplatin addition and further incubation for 24 hrs treated with 20 uM pan capsase inhibitor QVD for 30 mins prior to compound addition by CellEvent caspase 3/7 green detection reagent/Hoechst 33342 staining based arrayscan analysis; format: functional, cell-based
CAL-27 [5] = experiment: as §1, with “CAL27” for “Cal27CisR”, “0.5” for “1”; format: functional, cell-based
Homo sapiens [6] = organism: Homo sapiens; experiment: (§2) Potentiation of cisplatin-induced apoptosis in human Cal27CisR cells assessed as increase in caspase-3/7 activation at 1 uM preincubated for 48 hrs followed by cisplatin addition and further incubation for 24 hrs by CellEvent caspase 3/7 green detection reagent/Hoechst 33342 staining based arrayscan analysis; format: functional, cell-based
CAL-27 [7] = experiment: as §2, with “CAL27” for “Cal27CisR”, “0.5” for “1”; format: functional, cell-based
Homo sapiens [8] = organism: Homo sapiens; experiment: Induction of apoptosis in human Cal27CisR cells assessed as increase in caspase-3/7 activation at 1 uM after 48 hrs by CellEvent caspase 3/7 green detection reagent/Hoechst 33342 staining based arrayscan analysis; format: functional, cell-based
CAL-27 [9] = experiment: Induction of apoptosis in human CAL27 cells assessed as caspase-3/7 activity at 0.5 uM after 48 hrs by CellEvent caspase 3/7 green detection reagent/Hoechst 33342 staining based arrayscan analysis; format: functional, cell-based
[10] = Potentiation of cisplatin-induced apoptosis in human Cal27CisR cells assessed as accumulation at sub-G1 phase at 1 uM preincubated for 48 hrs followed by cisplatin addition and further incubation for 24 hrs by propidium iodide staining based flow cytometry (reference value: 8.3 +/- 1.06%); format: functional
CAL-27 [11] = experiment: Potentiation of cisplatin-induced apoptosis in human CAL27 cells assessed as increase in accumulation at sub-G1 phase at 0.5 uM preincubated for 48 hrs followed by cisplatin addition and further incubation for 24 hrs by propidium iodide staining based flow cytometry relative to cisplatin alone; format: functional
CAL-27 [12] = experiment: Potentiation of cisplatin-induced apoptosis in human CAL27 cells assessed as accumulation at sub-G1 phase at 0.5 uM preincubated for 48 hrs followed by cisplatin addition and further incubation for 24 hrs by propidium iodide staining based flow cytometry (reference value: 11.5 +/- 0.89%); format: functional
CAL-27 [13] = experiment: Induction of apoptosis in human CAL27 cells assessed as accumulation at sub-G1 phase at 0.5 uM after 48 hrs by propidium iodide staining based flow cytometry; format: functional, cell-based
[14] = Potentiation of cisplatin-induced apoptosis in human Cal27CisR cells assessed as increase in accumulation at sub-G1 phase at 1 uM preincubated for 48 hrs followed by cisplatin addition and further incubation for 24 hrs by propidium iodide staining based flow cytometry relative to cisplatin alone; format: functional
Homo sapiens [15] = organism: Homo sapiens; experiment: Induction of apoptosis in human Cal27CisR cells assessed as accumulation at sub-G1 phase at 1 uM after 48 hrs by propidium iodide staining based flow cytometry; format: functional, cell-based
[16] = Potentiation of cisplatin-induced cytotoxicity in human Cal27CisR cells assessed as fold reduction in cisplatin IC50 at 1 uM preincubated for 48 hrs followed by cisplatin addition and further incubation for 72 hrs by MTT assay relative to cisplatin alone; format: functional
CAL-27 [17] = experiment: Potentiation of cisplatin-induced cytotoxicity in human CAL27 cells assessed as fold reduction in cisplatin IC50 at 0.5 uM preincubated for 48 hrs followed by cisplatin addition and further incubation for 72 hrs by MTT assay relative to cisplatin alone; format: functional
Histone deacetylase 8 = target: T1, Histone deacetylase 8 (Homo sapiens, UniProt Q9BY41); experiment: Inhibition of C-terminal His-fusion tagged/N-terminal Strep-2 tagged recombinant human HDAC8 (1 to 377 residues) expressed in insect cells using Boc-Lys(TFa)-AMC as substrate preincubated for 5 mins followed by substrate addition and further incubation for 90 mins measured after 15 mins by microplate reader based fluorescence assay
T1 sequence (Q9BY41 whole entry): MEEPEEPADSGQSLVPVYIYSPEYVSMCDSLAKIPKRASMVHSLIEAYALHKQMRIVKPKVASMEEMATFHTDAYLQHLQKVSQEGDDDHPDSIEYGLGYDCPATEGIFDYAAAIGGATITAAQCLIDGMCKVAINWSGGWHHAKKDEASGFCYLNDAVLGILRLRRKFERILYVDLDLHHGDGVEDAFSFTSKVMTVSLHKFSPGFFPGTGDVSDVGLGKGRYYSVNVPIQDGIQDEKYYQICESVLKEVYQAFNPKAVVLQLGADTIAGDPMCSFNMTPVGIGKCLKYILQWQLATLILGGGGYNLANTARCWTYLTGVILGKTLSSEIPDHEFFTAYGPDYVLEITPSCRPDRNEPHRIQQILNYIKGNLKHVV

[18] = target: T2, Protein deacetylase HDAC6 (Homo sapiens, UniProt Q9UBN7); experiment: (§3) Inhibition of N-terminal GST-tagged recombinant human HDAC6 (1 to 1215 residues) expressed in Baculovirus infected insect cells using Boc-Lys(Ac)-AMC as substrate preincubated for 5 mins followed by substrate addition and further incubation for 90 mins measured after 15 mins by microplate reader based fluorescence assay
T2 sequence (Q9UBN7 whole entry): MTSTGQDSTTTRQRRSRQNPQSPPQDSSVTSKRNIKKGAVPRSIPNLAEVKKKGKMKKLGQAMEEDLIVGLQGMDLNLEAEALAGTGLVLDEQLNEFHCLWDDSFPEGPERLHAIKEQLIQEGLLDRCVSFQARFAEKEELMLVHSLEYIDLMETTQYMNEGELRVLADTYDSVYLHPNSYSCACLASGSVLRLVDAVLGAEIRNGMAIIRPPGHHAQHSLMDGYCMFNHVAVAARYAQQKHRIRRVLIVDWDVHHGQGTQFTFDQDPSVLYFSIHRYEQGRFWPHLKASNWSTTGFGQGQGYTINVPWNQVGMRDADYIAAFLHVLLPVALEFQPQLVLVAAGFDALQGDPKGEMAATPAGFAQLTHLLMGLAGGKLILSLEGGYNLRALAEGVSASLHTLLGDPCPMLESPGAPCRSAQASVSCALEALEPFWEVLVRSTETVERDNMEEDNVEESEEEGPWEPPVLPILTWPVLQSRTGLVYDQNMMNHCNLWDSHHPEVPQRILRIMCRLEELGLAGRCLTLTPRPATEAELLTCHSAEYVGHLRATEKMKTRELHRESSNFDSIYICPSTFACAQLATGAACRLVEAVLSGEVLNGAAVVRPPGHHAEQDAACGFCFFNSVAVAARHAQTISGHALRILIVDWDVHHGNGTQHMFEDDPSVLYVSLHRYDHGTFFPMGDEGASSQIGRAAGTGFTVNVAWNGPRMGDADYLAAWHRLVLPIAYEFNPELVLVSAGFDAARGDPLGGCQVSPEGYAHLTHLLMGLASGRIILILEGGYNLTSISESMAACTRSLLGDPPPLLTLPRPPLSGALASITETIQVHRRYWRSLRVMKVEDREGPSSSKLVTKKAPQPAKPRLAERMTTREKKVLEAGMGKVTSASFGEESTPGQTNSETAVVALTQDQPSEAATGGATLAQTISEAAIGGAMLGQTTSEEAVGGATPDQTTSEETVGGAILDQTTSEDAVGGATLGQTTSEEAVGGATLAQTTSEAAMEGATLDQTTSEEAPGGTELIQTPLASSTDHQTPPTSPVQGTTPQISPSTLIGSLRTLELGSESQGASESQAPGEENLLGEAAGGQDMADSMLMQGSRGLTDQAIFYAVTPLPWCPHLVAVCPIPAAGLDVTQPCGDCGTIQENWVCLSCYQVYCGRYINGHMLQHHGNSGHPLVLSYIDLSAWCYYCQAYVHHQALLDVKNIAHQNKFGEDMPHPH

Histone deacetylase 4 = Histone deacetylase 4 (Homo sapiens, UniProt P56524); experiment: as §3, with “C-terminal His-tagged/N-terminal” for “N-terminal”, “HDAC4 (627” for “HDAC6 (1”, “1084” for “1215”, “Boc-Lys(TFa)-AMC” for “Boc-Lys(Ac)-AMC”
Chain of Histone deacetylase 4 (P56524 whole entry): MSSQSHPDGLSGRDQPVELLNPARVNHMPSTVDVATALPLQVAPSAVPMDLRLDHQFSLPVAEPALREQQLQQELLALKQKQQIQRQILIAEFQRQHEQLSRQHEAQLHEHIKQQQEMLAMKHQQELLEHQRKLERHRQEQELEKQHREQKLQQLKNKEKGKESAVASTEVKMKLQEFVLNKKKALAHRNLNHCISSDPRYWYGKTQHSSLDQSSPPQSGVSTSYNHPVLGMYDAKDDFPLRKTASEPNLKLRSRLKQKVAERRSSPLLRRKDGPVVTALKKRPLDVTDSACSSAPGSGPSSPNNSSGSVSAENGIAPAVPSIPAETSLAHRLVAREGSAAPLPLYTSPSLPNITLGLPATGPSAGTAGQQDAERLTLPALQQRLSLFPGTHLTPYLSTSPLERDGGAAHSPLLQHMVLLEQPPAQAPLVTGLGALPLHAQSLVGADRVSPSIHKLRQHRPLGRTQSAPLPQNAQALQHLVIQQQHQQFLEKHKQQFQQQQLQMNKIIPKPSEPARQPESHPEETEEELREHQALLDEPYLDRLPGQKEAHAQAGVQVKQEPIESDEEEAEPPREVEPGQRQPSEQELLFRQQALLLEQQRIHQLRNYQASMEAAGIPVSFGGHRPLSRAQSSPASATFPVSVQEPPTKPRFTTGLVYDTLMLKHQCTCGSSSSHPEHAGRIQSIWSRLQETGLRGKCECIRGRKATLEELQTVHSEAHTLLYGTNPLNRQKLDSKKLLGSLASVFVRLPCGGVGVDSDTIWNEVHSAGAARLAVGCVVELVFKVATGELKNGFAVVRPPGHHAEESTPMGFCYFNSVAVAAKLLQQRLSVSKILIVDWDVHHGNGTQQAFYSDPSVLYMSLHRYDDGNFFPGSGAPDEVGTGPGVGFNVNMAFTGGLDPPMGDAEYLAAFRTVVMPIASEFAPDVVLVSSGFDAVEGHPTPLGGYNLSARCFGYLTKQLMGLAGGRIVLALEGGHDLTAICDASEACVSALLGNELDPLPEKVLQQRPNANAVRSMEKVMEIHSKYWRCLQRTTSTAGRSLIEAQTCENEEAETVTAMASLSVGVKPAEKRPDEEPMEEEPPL

Histone deacetylase 2 = Histone deacetylase 2 (Homo sapiens, UniProt Q92769); experiment: biochemical; format: cell-based
Chain of Histone deacetylase 2 (Q92769 whole entry): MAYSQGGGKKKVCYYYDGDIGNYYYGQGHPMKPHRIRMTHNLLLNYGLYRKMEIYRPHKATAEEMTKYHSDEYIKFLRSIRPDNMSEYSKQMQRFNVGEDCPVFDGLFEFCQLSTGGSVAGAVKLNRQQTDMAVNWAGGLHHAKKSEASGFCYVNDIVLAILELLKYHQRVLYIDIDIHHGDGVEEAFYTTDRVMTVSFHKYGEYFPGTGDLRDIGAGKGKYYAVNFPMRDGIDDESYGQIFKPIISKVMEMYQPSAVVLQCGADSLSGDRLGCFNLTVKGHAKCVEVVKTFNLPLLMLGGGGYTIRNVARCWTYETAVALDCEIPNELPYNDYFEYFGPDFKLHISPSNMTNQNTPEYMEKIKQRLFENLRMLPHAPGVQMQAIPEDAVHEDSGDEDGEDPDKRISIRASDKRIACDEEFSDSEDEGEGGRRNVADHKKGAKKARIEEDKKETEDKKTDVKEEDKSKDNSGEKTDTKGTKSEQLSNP

SMILES: O=C(/C=C/c1ccc(CONC(=O)Nc2ccccc2)cc1)NO
IC50 (Histone deacetylase [1]): 190 µM | pIC50 (CAL-27 [2]): 4.21 | pIC50 (A2780): 3.95 | IC50 (Histone deacetylase [3]): 144 µM

SMILES: COc1cc(C(=O)NOCc2ccc(/C=C/C(=O)NO)cc2)cc(OC)c1OC
IC50 (Histone deacetylase [1]): 6.85 µM | pIC50 (CAL-27 [2]): 5.05 | pIC50 (A2780): 4.41 | IC50 (Histone deacetylase [3]): 3.14 µM

SMILES: O=C(/C=C/c1ccc(CONC(=O)Nc2cccc3ccccc23)cc1)NO
IC50 (Histone deacetylase [1]): 43.2 µM | pIC50 (CAL-27 [2]): 4.47 | pIC50 (A2780): 4.41 | IC50 (Histone deacetylase [3]): 40.3 µM

SMILES: O=C(/C=C/c1ccc(CONC(=O)c2nccc3ccccc23)cc1)NO
IC50 (Histone deacetylase [1]): 1.98 µM | pIC50 (CAL-27 [2]): 5.38 | pIC50 (A2780): 5.50 | IC50 (Histone deacetylase [3]): 4.48 µM

SMILES: Cc1cc(C)cc(C(=O)NOCc2ccc(/C=C/C(=O)NO)cc2)c1
IC50 (Histone deacetylase [1]): 0.9 µM | pIC50 (CAL-27 [2]): 5.65 | pIC50 (A2780): 5.63 | IC50 (Histone deacetylase [3]): 1.09 µM

Stronger by pIC50 (A2780), values ahead:

IC50 (Histone deacetylase [1]): 7.6 µM | pIC50 (A2780): 5.77 | IC50 (Histone deacetylase [3]): 3 µM
SMILES: CCCCOc1ccc(C(=O)NOCc2ccc(/C=C/C(=O)NO)cc2)cc1
pIC50 (CAL-27 [2]): 5.34

pKi (Histone deacetylase 8): 5.38 | pKi [18]: 6.92 | pKi (Histone deacetylase 4): 4.60 | pKi (Histone deacetylase 2): 6.82 | IC50 (Histone deacetylase [1]): 0.57 µM | pIC50 (A2780): 5.94 | IC50 (Histone deacetylase [3]): 0.49 µM
SMILES: COc1ccc(NC(=O)NOCc2ccc(/C=C/C(=O)NO)cc2)cc1
Activity (Homo sapiens [4]): inactive | Activity (CAL-27 [5]): inactive | Activity (Homo sapiens [6]): Active | Activity (CAL-27 [7]): Active | Activity (Homo sapiens [8]): Active | Activity (CAL-27 [9]): inactive | Activity [10]: 52.2% | fold change (FC) (CAL-27 [11]): 3 | Activity (CAL-27 [12]): 36.7% | Activity (CAL-27 [13]): inactive | fold change (FC) [14]: 6 | Activity (Homo sapiens [15]): inactive | Ratio IC50 [16]: 4.76 | Ratio IC50 (CAL-27 [17]): 2.95 | pIC50 (CAL-27 [2]): 5.77

pKi (Histone deacetylase 8): 5.33 | pKi [18]: 7.00 | pKi (Histone deacetylase 4): 5.02 | pKi (Histone deacetylase 2): 7.15 | IC50 (Histone deacetylase [1]): 1.54 µM | pIC50 (A2780): 6.10 | IC50 (Histone deacetylase [3]): 0.27 µM
SMILES: O=C(/C=C/c1ccc(CONC(=O)c2ccc3ccccc3n2)cc1)NO
Activity (Homo sapiens [4]): inactive | Activity (CAL-27 [5]): inactive | Activity (Homo sapiens [6]): Active | Activity (CAL-27 [7]): Active | Activity (Homo sapiens [8]): Active | Activity (CAL-27 [9]): inactive | Activity [10]: 38.9% | fold change (FC) (CAL-27 [11]): 3 | Activity (CAL-27 [12]): 34.5% | Activity (CAL-27 [13]): inactive | fold change (FC) [14]: 4.7 | Activity (Homo sapiens [15]): inactive | Ratio IC50 [16]: 6.86 | Ratio IC50 (CAL-27 [17]): 5.69 | pIC50 (CAL-27 [2]): 6.10

pIC50 (A2780): 7.26
SMILES: Cc1[nH]c2ccccc2c1CCNCc1ccc(/C=C/C(=O)NO)cc1 [PANOBINOSTAT]
pIC50 (CAL-27 [2]): 7.96
